Reference: patent publication US11965039B2, “Compstatin analogues and their medical uses” (priority 2018, dated 2024)
Starred links: 1 amine or outer side, 2 acyl side, 3 side chain; linkers in the order of their positions; H or OH if unused. Positions of bridges follow the written chain, without caps; N, C: chain ends. Non-standard residues stand in square brackets, D forms with d. Residues, ends and D or L forms follow the SMILES beside them. Groups on a side chain read outwards from the residue. *: point of attachment. Trp(1-Me) = Cn1cc(C[C@H](N)C(=O)O)c2ccccc21; C18 diacid = O=C(O)CCCCCCCCCCCCCCCCC(=O)*; C16 diacid = O=C(O)CCCCCCCCCCCCCCC(=O)*; γGlu = O=C(O)[C@H](CCC(=O)[*:2])N[*:1]; Sar = CNCC(=O)O

What was measured:
[1] = tested on: classical complement pathway; experiment: In vitro haemolysis assay (inhibition of classical complement pathway); assay type: cell-based, human; conditions: human serum, sensitized sheep red blood cells; Table 3, given as upper bounds; read-out: IC50, inhibition of hemolysis
Summary of the method: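 Compound dilutions preincubated 15 min at room temperature with diluted human serum (titrated per batch for 70-90% maximal haemolysis), then antibody-sensitized sheep RBC (10^7/well) added for 30 min at 37 °C in Tris/casein buffer, pH 7.4. Stopped with EDTA; haemolysis read at 405 nm; IC50 by 4PL fit.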

[2] = Solubility test at 10 mg/mL (visual inspection and light scattering); assay type: physicochemical; conditions: for Solubility, Condition 1: Acetate pH 4; for Solubility, Condition 2: Acetate pH 5; for Solubility, Condition 3: Phosphate pH 6; for Solubility, Condition 4: Phosphate pH 7; for Solubility, Condition 5: Phosphate pH 7.5

Row | SMILES | IC50 [1] [nM] | Solubility, Condition 1 [2] | Solubility, Condition 2 [2] | Solubility, Condition 3 [2] | Solubility, Condition 4 [2] | Solubility, Condition 5 [2]
1 | CC[C@H](C)[C@@H]1NC(=O)[C@@H](NC(=O)[C@@H](NC(=O)[C@H](CCC(=O)O)NC(C)=O)[C@@H](C)CC)CSSC[C@@H](C(=O)N[C@H](C(=O)N[C@@H](CCC(=O)O)C(N)=O)[C@@H](C)O)NC(=O)[C@H](CCCNC(=N)N)NC(=O)[C@H](Cc2c[nH]cn2)NC(=O)[C@H](CCC(=O)O)NC(=O)CNC(=O)[C@H](Cc2c[nH]c3ccccc23)NC(=O)[C@H](CC(=O)O)NC(=O)[C@H](CCC(N)=O)NC(=O)[C@H](Cc2c[nH]c3ccccc23)NC1=O [Compound 33] (Ac-EICIWQDWGEHRCTE-NH2; disulfide 3-13) | < 100 | − (“−” denotes lack of solubility at the given condition, as UV absorbance at 340 nm exceeds 0.1 AU and/or it is visibly turbid or contains particles) | − (“−” denotes lack of solubility at the given condition, as UV absorbance at 340 nm exceeds 0.1 AU and/or it is visibly turbid or contains particles) | + (“+” denotes solubility at the given condition, as determined by UV absorbance being less than 0.1 AU at 340 nm and the sample being clear when manually inspected) | + (“+” denotes solubility at the given condition, as determined by UV absorbance being less than 0.1 AU at 340 nm and the sample being clear when manually inspected) | + (“+” denotes solubility at the given condition, as determined by UV absorbance being less than 0.1 AU at 340 nm and the sample being clear when manually inspected)
2 | CC[C@H](C)[C@@H]1NC(=O)[C@@H](NC(=O)[C@H](Cc2ccc(O)cc2)NC(=O)[C@H](CCC(=O)O)NC(=O)[C@H](CO)NC(=O)CNC(=O)[C@H](CCC(=O)O)NC(=O)CCCCCCCCCCCCCCC(=O)O)CSSC[C@@H](C(=O)N(C)CC(=O)N[C@@H](CCC(=O)O)C(N)=O)NC(=O)[C@H](CCCNC(=N)N)NC(=O)[C@H](Cc2c[nH]cn2)NC(=O)[C@H](CCC(=O)O)NC(=O)CNC(=O)[C@H](Cc2c[nH]c3ccccc23)NC(=O)[C@H](CC(=O)O)NC(=O)[C@H](CCC(N)=O)NC(=O)[C@H](Cc2cn(C)c3ccccc23)NC1=O [Compound 107] ({C16 diacid}-EGSEYCI[Trp(1-Me)]QDWGEHRC[Sar]E-NH2; disulfide 6-16) | < 100 | − (“−” denotes lack of solubility at the given condition, as UV absorbance at 340 nm exceeds 0.1 AU and/or it is visibly turbid or contains particles) | − (“−” denotes lack of solubility at the given condition, as UV absorbance at 340 nm exceeds 0.1 AU and/or it is visibly turbid or contains particles) | + (“+” denotes solubility at the given condition, as determined by UV absorbance being less than 0.1 AU at 340 nm and the sample being clear when manually inspected) | + (“+” denotes solubility at the given condition, as determined by UV absorbance being less than 0.1 AU at 340 nm and the sample being clear when manually inspected) | + (“+” denotes solubility at the given condition, as determined by UV absorbance being less than 0.1 AU at 340 nm and the sample being clear when manually inspected)
3 | CC[C@H](C)[C@@H]1NC(=O)[C@@H](NC(=O)CN(C)C(=O)[C@H](CCC(=O)O)NC(=O)[C@H](CO)NC(C)=O)CSSC[C@@H](C(=O)N(C)CC(=O)N[C@@H](CCC(=O)O)C(=O)N[C@@H](C)C(N)=O)NC(=O)[C@H](CCCNC(=N)N)NC(=O)[C@H](Cc2c[nH]cn2)NC(=O)[C@H](CCC(=O)O)NC(=O)CNC(=O)[C@H](Cc2c[nH]c3ccccc23)NC(=O)[C@H](CC(=O)O)NC(=O)[C@H](CCC(N)=O)NC(=O)[C@H](Cc2cn(C)c3ccccc23)NC1=O [Compound 81] (Ac-SE[Sar]CI[Trp(1-Me)]QDWGEHRC[Sar]EA-NH2; disulfide 4-14) | < 100 | − (“−” denotes lack of solubility at the given condition, as UV absorbance at 340 nm exceeds 0.1 AU and/or it is visibly turbid or contains particles) | − (“−” denotes lack of solubility at the given condition, as UV absorbance at 340 nm exceeds 0.1 AU and/or it is visibly turbid or contains particles) | + (“+” denotes solubility at the given condition, as determined by UV absorbance being less than 0.1 AU at 340 nm and the sample being clear when manually inspected) | + (“+” denotes solubility at the given condition, as determined by UV absorbance being less than 0.1 AU at 340 nm and the sample being clear when manually inspected) | + (“+” denotes solubility at the given condition, as determined by UV absorbance being less than 0.1 AU at 340 nm and the sample being clear when manually inspected)
4 | CC[C@H](C)[C@@H]1NC(=O)[C@@H](NC(=O)[C@H](Cc2ccccc2)NC(=O)[C@H](CCC(=O)O)NC(=O)[C@H](CO)NC(C)=O)CSSC[C@@H](C(=O)N(C)CC(=O)NCC(=O)N[C@@H](C)C(=O)N[C@@H](CCC(=O)O)C(=O)N[C@@H](CO)C(N)=O)NC(=O)[C@H](CCCNC(=N)N)NC(=O)[C@H](Cc2c[nH]cn2)NC(=O)[C@H](CCC(=O)O)NC(=O)CNC(=O)[C@H](Cc2c[nH]c3ccccc23)NC(=O)[C@H](CC(=O)O)NC(=O)[C@H](CCC(N)=O)NC(=O)[C@H](Cc2cn(C)c3ccccc23)NC1=O [Compound 74] (Ac-SEFCI[Trp(1-Me)]QDWGEHRC[Sar]GAES-NH2; disulfide 4-14) | < 100 | − (“−” denotes lack of solubility at the given condition, as UV absorbance at 340 nm exceeds 0.1 AU and/or it is visibly turbid or contains particles) | + (“+” denotes solubility at the given condition, as determined by UV absorbance being less than 0.1 AU at 340 nm and the sample being clear when manually inspected) | + (“+” denotes solubility at the given condition, as determined by UV absorbance being less than 0.1 AU at 340 nm and the sample being clear when manually inspected) | + (“+” denotes solubility at the given condition, as determined by UV absorbance being less than 0.1 AU at 340 nm and the sample being clear when manually inspected) | + (“+” denotes solubility at the given condition, as determined by UV absorbance being less than 0.1 AU at 340 nm and the sample being clear when manually inspected)
5 | CC[C@H](C)[C@@H]1NC(=O)[C@@H](NC(=O)[C@H](Cc2ccc(O)cc2)NC(=O)[C@H](CCC(=O)O)NC(=O)[C@H](CO)NC(C)=O)CSSC[C@@H](C(=O)N(C)CC(=O)N[C@@H](CCC(=O)O)C(=O)NCC(=O)N[C@@H](CCCCN)C(=O)N[C@@H](CCCCNC(=O)CC[C@H](NC(=O)CNC(=O)CC[C@H](NC(=O)CCCCCCCCCCCCCCCCC(=O)O)C(=O)O)C(=O)O)C(N)=O)NC(=O)[C@H](CCCNC(=N)N)NC(=O)[C@H](Cc2c[nH]cn2)NC(=O)[C@H](CCC(=O)O)NC(=O)CNC(=O)[C@H](Cc2c[nH]c3ccccc23)NC(=O)[C@H](CC(=O)O)NC(=O)[C@H](CCC(N)=O)NC(=O)[C@H](Cc2cn(C)c3ccccc23)NC1=O [Compound 115] (Ac-SEYCI[Trp(1-Me)]QDWGEHRC[Sar]EGKK([γGlu-Gly-γGlu-C18 diacid])-NH2; disulfide 4-14) | < 250 | − (“−” denotes lack of solubility at the given condition, as UV absorbance at 340 nm exceeds 0.1 AU and/or it is visibly turbid or contains particles) | − (“−” denotes lack of solubility at the given condition, as UV absorbance at 340 nm exceeds 0.1 AU and/or it is visibly turbid or contains particles) | + (“+” denotes solubility at the given condition, as determined by UV absorbance being less than 0.1 AU at 340 nm and the sample being clear when manually inspected) | + (“+” denotes solubility at the given condition, as determined by UV absorbance being less than 0.1 AU at 340 nm and the sample being clear when manually inspected) | + (“+” denotes solubility at the given condition, as determined by UV absorbance being less than 0.1 AU at 340 nm and the sample being clear when manually inspected)
6 | CC[C@H](C)[C@H](NC(=O)[C@H](C)NC(=O)[C@H](CO)NC(=O)CNC(=O)[C@H](CCC(=O)O)NC(C)=O)C(=O)N[C@H]1CSSC[C@@H](C(=O)N[C@H](C(=O)N[C@@H](CCC(=O)O)C(N)=O)[C@@H](C)O)NC(=O)[C@H](CCCNC(=N)N)NC(=O)[C@H](Cc2c[nH]cn2)NC(=O)[C@H](CCC(=O)O)NC(=O)CNC(=O)[C@H](Cc2c[nH]c3ccccc23)NC(=O)[C@H](CC(=O)O)NC(=O)[C@H](CCC(N)=O)NC(=O)[C@H](Cc2c[nH]c3ccccc23)NC(=O)[C@H]([C@@H](C)CC)NC1=O [Compound 55] (Ac-EGSAICIWQDWGEHRCTE-NH2; disulfide 6-16) | < 250 | − (“−” denotes lack of solubility at the given condition, as UV absorbance at 340 nm exceeds 0.1 AU and/or it is visibly turbid or contains particles) | − (“−” denotes lack of solubility at the given condition, as UV absorbance at 340 nm exceeds 0.1 AU and/or it is visibly turbid or contains particles) | + (“+” denotes solubility at the given condition, as determined by UV absorbance being less than 0.1 AU at 340 nm and the sample being clear when manually inspected) | + (“+” denotes solubility at the given condition, as determined by UV absorbance being less than 0.1 AU at 340 nm and the sample being clear when manually inspected) | + (“+” denotes solubility at the given condition, as determined by UV absorbance being less than 0.1 AU at 340 nm and the sample being clear when manually inspected)
